Experiments:
[1] = mouse, in vivo
Method: 1. The purpose of this study is to determine tissue levels of a test article after dosing in mice.
3. Test system • Number of animals: 39 • Species/strain or breed: C57BL/6J • Age/Wt. at Arrival: 7 weeks • Sex: Female
On study day 0 animals were randomized into treatment groups based on body weight. Following enrollment, treatment was initiated and continued as indicated below. Body weights were recorded following enrollment. Sample collection time points are outlined below On study day 1, animals were necropsied as specified in Section 6.6 below.
7.6 Necropsy information • Method of euthanasia: bleed to exsanguinate followed by cervical dislocation. • Time points: N=3 at each time point; 0 (vehicle); 10 min; 30 min; 1, 2, 3 and 4h
Terminal blood samples were collected via cardiac blood draw and processed for plasma (K2 EDTA, 300-400 uL/animal. Plasma samples were stored at −80 C for shipment on dry ice for bioanalysis. From each animal, the entire brain was collected, flash frozen, and stored at −80 C for shipment on dry ice to bioanalysis.
A study was performed to collect plasma for pharmacokinetic monitoring after a single dose of R-(−)-3-hydroxybutyric acid sodium salt (“BHB”) or R-3′-hydroxybutyl (R)-3′-hydroxybutyrate (“BHB ester”) in female C57BL/6 mice. […]

weight drop model of TBI = assay: Beam-walk behavioral assay in the weight drop model of TBI; format: in vivo, C57BL/6J female mice
Text: Test System. • Number of animals: 120 (100+20 extra for TBI deaths0 • Species/Strain or Breed: C57BL/6J • Vendor: Jackson Labs • Age/Wt at Arrival: 11 weeks at arrival • Gender: Female • Age/Wt at Study Initiation: 12 weeks • Acclimation: 7 days • Housing: 3-4 animals/cage
Study Design. Animals will arrive in the facility and will have access to food and water ad libitum. On study day 0, animals will be randomized based on bodyweight. Animals will be briefly anesthetized with isoflurane and subjected to traumatic brain injury (TBI) or sham injury as listed under Injury Induction. Animals will be weighed and undergo behavior testing (Beam Walking) and necropsied according to the Necropsy section.
They will then be placed individually in the prone position in a foam bed with their heads directly under a Plexiglas tube. A brass weight (80 g) will be dropped once through the tube from a specific height (0.8 m) and will strike the head directly creating a midline impact injury. Animals will be monitored for the presence of the forearm fencing response as a sign of moderate TBI. Animals will be placed in a clean cage on a heating pad for recovery, and righting reflex recovery times will be recorded for all animals. Sham animals will undergo all the same procedures but will not be subjected to TBI. Animals will be given 0.1 mg/kg SC buprenorphine directly after TBI to reduce acute pain associated with the injury and directly after sham procedures for the purpose of experimental matching. Animals will be checked daily, per the IACUC-approved post-operative monitoring plan.
Behavioral assay—Beam Walking (Luong, T N et al. Assessment of motor balance and coordination in mice using the balance beam.” J. Vis. Exp. (2011) 49: 2376) Fine motor coordination and balance can be assessed by the beam walking assay, which is a popular test for analyzing mice's gait in an environment that challenges their ability to balance themselves. The goal of this test is for the mouse to stay upright and walk across an elevated narrow beam to a safe platform. Performance on the beam is quantified by measuring the time it takes for the mouse to traverse the beam and the number of paw slips that occur in the process. This task is particularly useful for detecting subtle deficits in motor skills and balance that may not be detected by other motor tests, such as the Rotarod.
This test takes place over 3 consecutive days: 2 days of training and 1 day of testing. On training days, each mouse crosses the 12 mm beam 3 times and then the 6 mm beam 3 times. […] Mice are placed at one end of a beam and the time required to cross to the escape box at the other end (80 cm away) is measured by the motion detectors. […]
On the test day, times to cross each beam are recorded. […]

[2] = test system: Neurofilament Light (NfL) Chain; assay: Neurofilament light chain in plasma after TBI; format: in vivo, C57BL/6J female mice; settings: preliminary, data not shown
Method: Plasma collection method: Centrifuge plasma samples (EDTA tubes) at 2200×g (not RPM) for 15 minutes at room temperature. Observe separation of blood cells and plasma, with plasma layer on top. Draw off only the plasma layer and take care not to disturb buffy coat when aliquoting by leaving some plasma behind and avoiding the cell layer. Aliquot samples immediately into appropriately labeled tubes and then place them in a −80° C. freezer. […] [table]

[3] = test system: IL-1β, IL-6, IL-10, TNF-α; assay: Luminex Mouse Inflammatory Panel in cortex after TBI; format: in vivo, C57BL/6J female mice
Method: Sacrifice Schedule: • a. Day 0—animals 1-5, all groups, 4h post TBI • b. Day 1—animals 6-10, all groups, 24 h post-TBI • c. Day 14—animals 11-20, all groups, 14d post TBI
Luminex Mouse Inflammatory Panel. FIG. 9A-FIG. 9C show pg/pg total protein of IL-1β (FIG. 9A), IL-6 (FIG. 9B) and IL-10 (FIG. 9C) expressed in the cortex in each study group from FIG. 8. […] While IL-10 is generally thought of as an anti-inflammatory cytokine, it also may promote fibrotic processes [Steen, E H et al. Adv. Wound Care (New Rochelle) (2020) 9 (4): 184-98, citing O'Garra, A. et al. Immunol. Rev. ([…]) 223: 114-31]. The data for the pre+post groups are consistent with the behavioral data.

human HCA2 = human HCA2 (Homo sapiens, UniProt Q8TDS4); settings: citing Taggart et al. 2005; read-out: EC50 for activation of human HCA2; cited from earlier work
[4] = citing Newman and Verdin 2017; cited from earlier work

human HCA2, sequence (Q8TDS4 whole entry): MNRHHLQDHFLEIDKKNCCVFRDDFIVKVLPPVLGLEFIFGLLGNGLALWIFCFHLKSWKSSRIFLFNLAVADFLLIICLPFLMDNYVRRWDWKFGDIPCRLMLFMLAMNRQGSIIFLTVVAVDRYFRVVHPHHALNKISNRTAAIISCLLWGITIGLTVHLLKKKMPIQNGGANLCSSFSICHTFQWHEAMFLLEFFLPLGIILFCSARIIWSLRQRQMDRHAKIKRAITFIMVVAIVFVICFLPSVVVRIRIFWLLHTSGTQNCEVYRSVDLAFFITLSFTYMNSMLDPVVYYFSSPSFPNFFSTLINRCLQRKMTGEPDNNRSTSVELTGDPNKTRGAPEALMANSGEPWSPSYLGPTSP

| plasma levels relative to brain levels [1] | SMILES | improvement in foot faults (weight drop model of TBI; 2× pre+post group, 1 day after TBI, IN daily) | foot faults after IN delivery after TBI (weight drop model of TBI; as soon as day 1 after injury, greatest decrease in post and 2× pre and post groups at day 3) | beam walking at day 3, all treated groups (weight drop model of TBI; day 3, best results in post and 2× pre+post groups) | beam walking, treated groups vs TBI vehicle (weight drop model of TBI; pre, post, pre+post and 2× pre+post groups, day 1 and day 3) | NfL plasma results [2] | IL-1β expression in cortex ([3]; 24 h and 14 day time points) | IL-6 expression in cortex ([3]; 24 h and 14 day time points) | IL-10 expression in cortex ([3]; 24 h and 14 day time points) | TNF-α results ([3]; data not shown) | EC50 (human HCA2) | solubility in water and blood [4] |
| --- | --- | --- | --- | --- | --- | --- | --- | --- | --- | --- | --- | --- |
| approximately ten fold | C[C@@H](O)CCOC(=O)C[C@@H](C)O [BHB ester, R-3′-hydroxybutyl (R)-3′-hydroxybutyrate] | – | – | – | – | – | – | – | – | – | – | – |
| approximately ten fold | C[C@@H](O)CC(=O)[O-].[Na+] [BHB salt, R-(−)-3-hydroxybutyric acid sodium salt] | 70% | decreased foot faults | significantly improved | showed improvement in beam walking | not significant | decreased expression | decreased expression | decreased expression | not significant | – | – |
| – | CC(O)CC(=O)O (stereo not drawn) [BHB, beta-hydroxybutyrate] | – | – | – | – | – | – | – | – | – | ~700 µM | readily soluble in water and blood |

Reference: patent US20230277484A1, “COMPOSITIONS AND METHODS TO PROMOTE BRAIN HEALTH” (Guardian Biosciences, LLC, priority 2022, published 2023)
